A short description of this data set: Stability of the R,R′-atracurium salts in a closed vial at room temperature, monitored by HPLC. It counts as physicochemical. The note with it: solid salt; for % content of the 1R-cis,1′R-cis isomer in the sample, After 19 days / % content of the 1R-cis,1′R-cis isomer in the sample, After 34 days / % content of the 1R-cis,1′R-cis isomer in the sample, After 47 days: HPLC; for % content of the 1R-cis,1′R-cis isomer in the sample, Reference sample (t0): t0, HPLC. An excerpt: 1 g of the R,R′-atracurium salt was placed in a closed vial, which was left aside at room temperature. From time to time the vial was opened and a sample was withdrawn and monitored by HPLC. The results are summarized in Table 3 and expressed as % content of the 1R-cis,1′R-cis isomer in the sample as function of the elapsed time, as measured by HPLC.

Regarding R,R′-atracurium tetrafluoroborate, the “% content of the 1R-cis,1′R-cis isomer in the sample, After 19 days” value was found to be 88.8%; the “% content of the 1R-cis,1′R-cis isomer in the sample, After 34 days” value was determined as 85.3%; the “% content of the 1R-cis,1′R-cis isomer in the sample, After 47 days” value worked out at 82.6%; the “% content of the 1R-cis,1′R-cis isomer in the sample, Reference sample (t0)” value is 98.2%.
For the compound `COc1ccc(C[C@@H]2c3cc(OC)c(OC)cc3CC[N+]2(C)CCC(=O)OCCCCCOC(=O)CC[N+]2(C)CCc3cc(OC)c(OC)cc3[C@H]2Cc2ccc(OC)c(OC)c2)cc1OC.O=S(=O)([O-])c1ccccc1.O=S(=O)([O-])c1ccccc1` (stereo partly drawn) [besylate, R,R′-atracurium besylate, reference compound], the “% content of the 1R-cis,1′R-cis isomer in the sample, After 19 days” value was 80.5%; the “% content of the 1R-cis,1′R-cis isomer in the sample, After 34 days” value was determined as 15.1%; the “% content of the 1R-cis,1′R-cis isomer in the sample, After 47 days” value worked out at 7.9%; the “% content of the 1R-cis,1′R-cis isomer in the sample, Reference sample (t0)” value stood at 97.2%.
The corresponding values for R,R′-atracurium perchlorate are 92.1%, 92.7%, 92.3% and 98%.

The values are drawn from patent publication US8354537B2, “R,R1-atracurium salts” (CHEMAGIS Ltd., priority 2007, dated 2013).
